Like-named read-outs stand apart in the source and are kept apart here.
Target: T1, HIF-2α HIS TAG-PASB Domain (Homo sapiens, UniProt Q99814)
T1 construct: 100 nM HIF-2α HIS TAG-PASB Domain
Test: HIF-2α Scintillation Proximity Assay (SPA)
Type: binding
Description: The total assay volume was about 100 μL in the following configuration: 2 μL compound in 100% DMSO, 88 μL buffer with protein and probe and 10 μL of SPA beads. […] The percent inhibition was determined and IC50 values were calculated using the Dotmatics system based on the following equation: % inhibition=[(high control−sample)/(high control−low control)]×100.

[1] = read-out: Scintillation Proximity Assay IC50
[2] = Scintillation Proximity Assay IC50 (nM)

T1 sequence (Q99814 240-350 limits assumed): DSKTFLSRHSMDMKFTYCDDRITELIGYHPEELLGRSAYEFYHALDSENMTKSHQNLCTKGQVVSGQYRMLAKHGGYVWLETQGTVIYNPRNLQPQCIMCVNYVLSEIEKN

SMILES | IC50 [1] [nM] | IC50 [2] [nM]
N=S(=O)(c1ccc(Oc2cc(F)cc(Cl)c2)c(Br)c1)C(F)F (stereo not shown) [Compound 69] | > 1000 | –
COc1ccc(-c2cn[nH]c2)c2c1CC(F)(F)C2O (stereo not shown) [Compound 680] | > 1000 | –
O[C@H]1c2c(OCC(F)F)ccc(C(F)(F)F)c2[C@H](F)C1(F)F [Compound 690] | > 1000 | –
OC1c2c(Br)ccc(OC(F)(F)F)c2CC1(F)F (stereo not shown) [Compound 653] | > 1000 | –
O=S1(=O)CCc2c1ccc(Oc1cc(F)cc(Cl)c1)c2Br [Compound 350] | > 1000 | –
N#Cc1cc(F)cc(Oc2ccc(S(=O)(=O)C(F)(F)F)c(Cl)c2C#N)c1 [Compound 29] | < 50 | –
CS(=O)(=O)c1ccc(Oc2cc(F)cc(C#N)c2)c2c1[C@H](O)C(F)(F)[C@H]2O [Compound 311] | > 1000 | –
N#Cc1cc(F)cc(Oc2ccc(S(=O)(=O)C(F)F)c(C#N)c2Br)c1 [Compound 77] | > 1000 | –
CS(=O)(=O)c1ccc(Oc2cc(F)cc(C#N)c2)c2c1C(O)C1(CC1)C2 (stereo not shown) [Compound 217] | > 1000 | –
O=S(=O)(c1ccc(Oc2cc(F)cc(Cl)c2)c(Cl)c1CNCC(F)(F)F)C(F)F [Compound 47] | > 1000 | –
N#Cc1cc(F)cc(Oc2ccc(S(=O)(=O)C3CCC3)c3c2CCC3O)c1 (stereo not shown) [Compound 208] | > 1000 | –
CS(=O)(=O)c1ccc(N2CCC[C@H](O)C2)c2c1[C@H](O)C(F)(F)[C@@H]2F [Compound 484, (S)-1-((1S,3R)-2,2,3-trifluoro-1-hydroxy-7-(methylsulfonyl)-2,3-dihydro-1H-inden-4-yl)piperidin-3-ol] | > 1000 | –
O=S(=O)(c1ccc(Oc2cccc(C(F)(F)F)c2)c(Br)c1CO)C(F)F [Compound 89] | > 1000 | –
N#Cc1c(Oc2cc(F)cc(Cl)c2)ccc2c1C(O)C(F)(F)S2(=O)=O (stereo not shown) [Compound 356] | – | < 50
C/C=C/c1c(S(=O)(=O)C(F)F)ccc(Oc2cc(F)cc(C#N)c2)c1C#N [Compound 178] | 250 to 1000 | –
CNCc1c(S(=O)(=O)C(F)(F)F)ccc(Oc2cc(F)cc(Cl)c2)c1Br [Compound 109] | > 1000 | –
O[C@H]1c2c(C(F)(F)F)ncc(O[C@H]3C[C@H](F)C3)c2C[C@H]1F [Compound 478] | < 50 | –
O=S(=O)(c1ccc(Oc2cc(F)cc(Cl)c2)c(Cl)c1CNC1CCCOC1)C(F)F (stereo not shown) [Compound 49] | > 1000 | –

SMILES | IC50 [1] [nM] | IC50 [2] [nM]
Cc1cc(C#N)cc(Oc2ccc3c(c2C(F)F)C(=O)C(F)(F)S3(=O)=O)c1 [Compound 391] | > 1000 | –
O=S(=O)(c1ccc(Oc2cc(F)cc(Cl)c2)c(Br)c1CNCCO)C(F)(F)F [Compound 108] | > 1000 | –
O=C1c2c(C(F)(F)F)ccc(OCC(F)F)c2CC1F (stereo not shown) [Compound 694] | > 1000 | –
N#Cc1c(Oc2cc(F)cc(Cl)c2)ccc(S(=O)(=O)C(F)(F)F)c1NCCO [Compound 154] | > 1000 | –
CS(=O)(=O)c1ccc(Nc2ccc(F)cc2)c2c1C(O)C(F)(F)C2 (stereo not shown) [Compound 501] | > 1000 | –
N#Cc1cc(F)cc(Oc2ccc3c(c2C(F)F)C(O)(C(F)(F)F)C(F)(F)S3(=O)=O)c1 (stereo not shown) [Compound 445] | > 1000 | –
N#CN=S(=O)(CF)c1ccc(Oc2cc(F)cc(C#N)c2)c2c1[C@H](O)CC2 (stereo partly shown) [Compound 282] | > 1000 | –
N#Cc1c(S(=O)(=O)C(F)F)ccc(Oc2cc(F)cc(Cl)c2)c1Br [Compound 76] | 250 to 1000 | –
OC1c2c(I)cc(I)c(OCC(F)F)c2CC1(F)F (stereo not shown) [Compound 666] | > 1000 | –
O=S(=O)(c1ccc(Oc2cc(F)cc(CO)c2)c(Br)c1)C(F)(F)F [Compound 177] | > 1000 | –
O=S1(=O)C[C@H](O)c2c1ccc(Oc1cccc(F)c1)c2Br [Compound 419] | > 1000 | –
N#CN=S(=O)(CF)c1ccc(Oc2cc(F)cc(C#N)c2)c2c1[C@H](O)C(F)(F)C2 (stereo partly shown) [Compound 286] | < 50 | –
N=S1(=O)CC(O)c2c1ccc(Oc1cc(F)cc(F)c1)c2C(F)F (stereo not shown) [Compound 396] | > 1000 | –
COC(=O)c1c([S+]([O-])C(F)F)ccc(Oc2cc(F)cc(Cl)c2)c1Br (stereo not shown) [Compound 82] | > 1000 | –
CC1(O)c2cc(Oc3cc(F)cc(F)c3)ccc2S(=O)(=O)C1(F)F (stereo not shown) [Compound 425] | > 1000 | –
N#Cc1cc(S(=O)(=O)C(F)(F)F)ccc1Oc1cc(F)cc(Cl)c1 [Compound 119] | – | 50 to 249
N#Cc1cc(Oc2ccc(S(=O)(=O)C(F)F)c3c2CC(F)(F)C3=O)ccc1F [Compound 199] | > 1000 | –
CN(C)Cc1c(S(=O)(=O)C(F)F)ccc(Oc2cc(F)cc(Cl)c2)c1C#N [Compound 36] | > 1000 | –

Now from value to compound, other results behind:

IC50 [1] [nM] | SMILES | IC50 [2] [nM]
> 1000 | O=S(=O)(c1ccc(Nc2cncc(Cl)c2)c2c1C(O)CC2)C(F)(F)F (stereo not shown) [Compound 503] | –
> 1000 | CC(=O)Nc1ccc(S(=O)(=O)C(F)(F)F)c2c1CCC2O (stereo not shown) [Compound 518] | –
> 1000 | CC1(Oc2ccc(S(=O)(=O)C(F)(F)F)c3c2CC(F)(F)[C@H]3O)COC1 [Compound 785] | –
> 1000 | O=S(=O)(c1ccc(N2CCOCC2)c2c1[C@H](O)C(F)(F)C2)C(F)(F)F [Compound 490, (S)-2,2-difluoro-4-morpholino-7-((trifluoromethyl)sulfonyl)-2,3-dihydro-1H-inden-1-ol] | –
> 1000 | O=S(=O)(c1ccc(OCCO)c2c1C(O)CC2)C(F)(F)F (stereo not shown) [Compound 613] | –
> 1000 | CC1(C)CCC(=O)[C@@H](c2ccc(S(=O)(=O)C(F)(F)F)c3c2CC(F)(F)[C@H]3O)C1 [Compound 546] | –
> 1000 | CS(=O)(=O)N1CCCC(Oc2ccc(S(=O)(=O)C(F)(F)F)c3c2CC(F)(F)C3O)C1 (stereo not shown) [Compound 628] | –
> 1000 | Cn1cc(-c2ccc(S(=O)(=O)C(F)(F)F)c3c2CC(F)(F)[C@H]3O)cn1 [Compound 566] | –
> 1000 | CN(C)C(=O)COc1ccc(S(=O)(=O)C(F)(F)F)c2c1CC(F)(F)C2O (stereo not shown) [Compound 632] | –
> 1000 | O=S(=O)(c1ccc(Sc2cc(F)cc(Cl)c2)c2c1[C@H](O)CC2)C(F)F [Compound 493, (R)-4-((3-chloro-5-fluorophenyl)thio)-7-((difluoromethyl)sulfonyl)-2,3-dihydro-1H-inden-1-ol] | –
> 1000 | CS(=O)(=O)c1ccc(Nc2cncc(Cl)c2)c2c1C(O)CC2 (stereo not shown) [Compound 499] | –
> 1000 | CCOc1ccc(S(=O)(=O)C(F)(F)F)c2c1CCC2O (stereo not shown) [Compound 589] | –
> 1000 | N#Cc1cc(F)cc(Oc2ccc(S(=O)(=O)C(F)(F)F)c3c2CC(F)C3N)c1 (stereo not shown) [Compound 268] | –
> 1000 | O=S(=O)(c1ccc(OC2CNC2)c2c1[C@H](O)C(F)(F)C2)C(F)(F)F [Compound 792] | –
> 1000 | CS(=O)(=O)c1ccc(Oc2cc(F)cc(C#N)c2)c2c1C(O)CCC2 (stereo not shown) [Compound 95] | –
250 to 1000 | O=S(=O)(c1ccc(Oc2cncc(Cl)c2)c2c1[C@H](O)CC2)C(F)(F)F [Compound 184] | –
> 1000 | CS(=O)(=O)N1CCC(Oc2ccc(S(=O)(=O)C(F)(F)F)c3c2CC(F)(F)C3O)C1 (stereo not shown) [Compound 630] | –
> 1000 | O=S(=O)(c1ccc(CO)c2c1[C@H](O)C(F)(F)C2)C(F)(F)F [Compound 537] | –
> 1000 | CC(=O)N1CCCC(Oc2ccc(S(=O)(=O)C(F)(F)F)c3c2CC(F)(F)C3O)C1 (stereo not shown) [Compound 627] | –
> 1000 | O=S(=O)(c1ccc(OC2CCc3ncccc32)c2c1[C@H](O)C(F)(F)C2)C(F)(F)F (stereo partly shown) [Compound 733] | –
> 1000 | CCOc1ccc(C(F)(F)F)c2c1CC[C@H]2O [Compound 673] | –
> 1000 | O=S(=O)(c1ccc(OCCCO)c2c1C(O)CC2)C(F)(F)F (stereo not shown) [Compound 611] | –

Reference: US10278942B2 (PELOTON THERAPEUTICS, INC., priority 2015, dated 2019)
